Assay results as given in publication PMC10597491 (PLOS ONE, 2023).
Bridge positions count the residues as written; N and C are the ends. Ends that are not written are not given here.

Experiments:
human γc ECD = molecular target: T1, human γc ECD (Homo sapiens, UniProt P31785); assay: Competition binding ELISA, human γc ECD; settings: immobilized Fc-γc ECD; tracer biotinylated MDK1188 pre-complexed with Neutravidin-HRP; 4°C
T1 construct: human IL-2Rα(aa 23–254)-Fc, Acro Cat# ILG-H5256; purchased Acro ILG-H5256
T1 sequence (P31785 23-254): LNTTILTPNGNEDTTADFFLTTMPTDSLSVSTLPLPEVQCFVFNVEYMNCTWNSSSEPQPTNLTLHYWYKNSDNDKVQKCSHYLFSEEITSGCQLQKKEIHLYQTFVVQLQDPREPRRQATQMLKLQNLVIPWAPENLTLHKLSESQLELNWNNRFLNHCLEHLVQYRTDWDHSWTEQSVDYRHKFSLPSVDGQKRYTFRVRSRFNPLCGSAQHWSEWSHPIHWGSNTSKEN
Description: (A, B) Determination of IC50 values in a competition ELISA for compound binding to human and cyno IL-7Rα and γc. The assay format is IL-7Rα-(His)6-tagged ECD or Fc-γc ECD immobilized on 96-well plates. Tracers are C-terminal biotinylated forms of the reference IL-7Rα and γc peptide ligands, each pre-complexed with Neutravidin-HRP (NA-HRP). (C, D) Label-free measurement of the equilibrium dissociation constant (KD) for peptide binding to IL-7Rα and γc extracellular domains with peptides was performed by biolayer interferometry as detailed in methods. Red lines depict 1:1 binding fit from Gator™ software. Blue lines represent individual BLI sensogram data taken every 0.1 seconds.
Binding was determined using a competition binding ELISA. Microtiter plates (Immulon 4HBX flat bottom 96-well) were coated with 50 μL of […] human ECDs: IL-7Rα(aa 21–236)-His6, Sino Biological Cat# 10975-H08H; cynomolgus IL-7Rα(aa 21–235)-His6, Sino Biological Cat# 90332-C08H; human IL-2Rα(aa 23–254)-Fc, Acro Cat# ILG-H5256; cynomolgus IL-2Rα(aa 23–254)-Fc, made in-house, in PBS overnight at 4°C. […] Plates were washed with cold wash buffer, and bound tracer was detected using TMB One Component HRP substrate and Stop Solution (Surmodics Cat# TMBW-1000-01 and LSTP-0100-01). Absorbance at 450 nm was read using Agilent BioTek Synergy HTX Multimode Reader.

IL-2βγc receptor = molecular target: T2, IL-2βγc receptor (Homo sapiens, UniProt P31785); assay: IL-2-induced pSTAT5 in TF-1 cells expressing IL-2/15Rβ; assay type: cell-based
T2 construct: pcDNA3.1 expression vector encoding full-length IL-2Rβ, IL-7Rα, IL-9Rα, or IL-21Rα; TF-1 cells naturally express γc and IL-4Rα; expressed in transfected cells
T2 sequence (P31785 23-369): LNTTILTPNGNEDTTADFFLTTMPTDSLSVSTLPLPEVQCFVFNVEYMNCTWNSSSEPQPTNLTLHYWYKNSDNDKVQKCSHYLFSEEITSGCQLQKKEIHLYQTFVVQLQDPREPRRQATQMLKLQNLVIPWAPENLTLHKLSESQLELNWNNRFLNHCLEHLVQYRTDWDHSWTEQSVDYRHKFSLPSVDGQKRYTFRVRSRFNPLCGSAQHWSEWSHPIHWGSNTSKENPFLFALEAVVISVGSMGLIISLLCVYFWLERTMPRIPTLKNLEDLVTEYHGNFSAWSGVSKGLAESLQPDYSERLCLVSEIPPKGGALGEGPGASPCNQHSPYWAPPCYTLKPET
Procedure: Cells were deprived of growth factors by overnight incubation at 5×10^5 cells/mL in starvation medium (RPMI 1640 + 4.5 g/L glucose + 0.2% FBS + 2 mM L-glutamine + 1 mM NaPyr + 10 mM HEPES + 0.5x penicillin-streptomycin with no cytokine supplement) in T75 flasks. For assays, cells were plated in 96-well V-bottom plates at 2×10^5 cells/well. Three-fold serial dilutions in starvation medium of the test compounds or cytokine were added to the cells and incubated for 30 min at 37°C. Following incubation, cell extracts were prepared by adding a mixture of 10x Cell Lysis Buffer (Cell Signaling Technology Cat# 9803) and 100x HALT Phosphatase and Protease Inhibitor Cocktail (Thermo Fisher Cat# 78442) directly to the wells. The plates were agitated at 25°C for 5 min to prepare cell extracts for immediate use or to be stored at -80°C until assay. Detection of pSTAT5 was performed using a PathScan® Phospho-Stat5 (pTyr694) Sandwich ELISA Kit (Cell Signaling Technology Cat# 7113). Detection of pSTAT6 was performed using a PathScan® Phospho-Stat6 (pTyr641) Sandwich ELISA Kit (Cell Signaling Technology Cat# 7275). Detection of pSTAT3 was performed using a PathScan® Phospho-Stat3 (pTyr705) Sandwich ELISA Kit (Cell Signaling Technology Cat# 7300). Cell lysates were added to pre-coated ELISA wells and incubated at 4°C overnight. […]

[1] = test system: rested human CD8+ T-cells; settings: IL-7-treated CD8+ cells, over 6 hours at 37°C; cited from earlier work
Description: Internalization of the ternary signaling complex also depletes the local ...

| IC50 (human γc ECD) [µM] | IC50 (IL-2βγc receptor) [µM] | Substance | disappearance of surface IL-7Rα [1] |
| --- | --- | --- | --- |
| 0.057 | ~5 | Ac-GWGIPWCTLDPGSLQCAWLGKHGGGGSGGVVCQDWEGVELCWQGG (disulfide 7-16, 32-41) [MDK1472] | – |
| – | – | IL-7: human IL-7 cytokine (Peprotech) | ~ 80% |
